Columns and labels:
[1] = tested on: patients with major depressive disorder; test: Double-blind, randomized, placebo-controlled, active reference study in patients with major depressive disorder; assay type: in vivo, human; details: for change from baseline in MADRS total score, Mean ± SD / MADRS total score, Difference to Placebo: week 6, venlafaxine 75 mg/d orally
From the text: This randomized, double-blind, fixed-dose, placebo-controlled, active reference study recruited 32 randomized patients in accordance with the principles of Good Clinical Practice [ICH (1996). Harmonized Tripartite Guideline E6: Guideline for Good Clinical Practice (http://www.fda.gov/downloads/drugs/guidancecomplianceregulatoryinformation/gui dances/ucm073122.pdf)] and the Declaration of Helsinki [WMA (1964). Ethical Principles for Medical Research Involving Human Subjects (http://www.wma.net/en/30publications/10policies/b3/). World Medical Association.] Local ethics committees approved the study design and eligible patients gave their written informed consent before participating.
Eligible patients were randomized equally (1:1:1:1) to one of the four treatment arms for a 6-week double-blind treatment period. Randomized patients were given 1-week wallet cards at each visit and were instructed to take two capsules per day, orally, at the same time every day (preferably in the morning). NA-831 was dosed at 20 mg/day or 40 mg/d for 6 week and venlafaxine at 75 mg/d over 6-week treatment period. Efficacy and tolerability were assessed at screening, baseline and after 1, 2, 3, 4, 5, and 6 week. Patients were contacted for a safety follow-up 4 week after the completion visit.
Patients with MDD presenting with a current major depressive episode according to DSM-IV-TR criteria were included in the study if they were an outpatient of either sex, aged from 20 yr to 65 yr, (mean=39.7±8.5) (with a Montgomery—Åsberg Depression Rating Scale (MADRS) (Montgomery & Åsberg, 1979) total score ≥30 at the baseline visit. [Montgomery S Åsberg M (1979). A new depression scale designed to be sensitive to change. British Journal of Psychiatry 134 382-389.https://doi.org/10.1192/bjp.134.4.382]
Patients were evaluated using the MADRS from baseline to week 6. Rater training was undertaken to increase inter-rater reliability, and was supervised by an experienced investigator. Only those investigators who had actively participated in rater training sessions prior to inclusion of patients into the study were allowed to rate patients. Patient ratings were assessed by the same investigator at each visit, whenever possible.
All safety analyses were based on the all-patients-treated set (APT), comprising all randomized patients who took at least one dose of study medication. All efficacy analyses were based on a modified intent-to-treat set (ITT)—the full-analysis set (FAS), comprising all patients in the […] who had at least one valid post-baseline MADRS total score assessment.
Four hypotheses were part of the primary efficacy analysis, which was fully adjusted for multiplicity using a hierarchical testing procedure at the 5% level of significance as long as the previous hypothesis was rejected. The order of testing was: no difference between the 20 mg dose vs. placebo at week 6, no difference between […] at week 6, no difference between 20 mg dose vs. placebo at week 1, and finally no difference between 40 mg dose vs. placebo at week 1. The statistical model was an analysis of covariance (ANCOVA) of the change from baseline in MADRS total score (FAS, LOCF) with treatment and site as fixed factors and the baseline MADRS score as a covariate. The primary efficacy analysis was repeated on observed cases (OC) data, using both an ANCOVA and a mixed model for repeated measurements (MMRM).
All adverse effects (AEs) (including any change in concurrent illnesses or new illnesses) either observed by the investigator or reported spontaneously by the patient were recorded. AEs were coded using the lowest level term according to the Medical Dictionary for Regulatory Activities, version 10.0. As a post-hoc analysis, the safety database was searched at preferred-term and verbatim-term level for possible suicide-related AEs, as described by the FDA [Laughren (2006). Memorandum on Suicidality. (http://www.fda.gov/ohrms/dockets/ac/06/briefing/2006-4272b1-01-fda.pdf)].

[2] = tested on: cerebellar microexplants (P4); test: Glutamate induced neuronal death in cerebellar microexplants (P4); assay type: cell-based, Wistar rats
Procedure: Cerebellar Cell Culture Preparing and Coating of Cover Slips
Ten coverslips were placed into a large petri dish and washed in 70% alcohol for 5 minutes, then washed with Millipore H2O. The coverslips were air dried, then coated with Poly-D-Lysine (1 mg/ml stock solution in PBS, 90-100 μl) and incubated for 2 hours at 34° C.
Postnatal day 4 Wistar rats were used for the study. Rats were placed in ice for 1 minute, the heads were decapitated and the cerebellum removed on ice. Cerebellum tissue was placed in 1 ml of 0.65% glucose supplemented PBS (10 μl 65% stock D (+)glucose/1 ml PBS) in a large petri dish, chopped up into smaller sections and triturate with a 1 ml insulin syringe via a 23 G (0.4 mm) needle, and then squirted back into the glucose solution on the large petri dish. The tissue was sieved through (125 μm pore size gaze) and centrifuged (2 minutes at 60 g) two times for a medium exchange into serum-free BSA-supplemented START V medium (Biochrom). The second centrifugation step was done with 1 ml of START V medium. The microexplants were reconstituted into 500 μl of START V medium and put on ice.
Cultivation and Fixation of Cerebellar Cells
Two hours after PDL-coating, the slides were washed with Millipore H2O and air dried. Each slide was placed into a small 35 mm petri dish and 40 μl of START V/cell suspension added. The tissue was incubated for 2 hours at 34° C. (settlement period). START V-medium (1 ml) was then added to the petri dish and cultivated at 34° C./5% CO2/100% humidity for 48 hours. Cells were rinsed in PBS and then fixed for 2-3 minutes in increasing concentrations of paraformaldehyde (500 μl of 0.4% PFA was applied; then 1.2% PFA; then 3% PFA and finally 4% PFA—all fixation solutions contain 0.2% glutardialdehyde). Finally, the microexplants were rinsed in PBS.
10 μl of toxin (L-glutamate-100 mM in Millipore water) was applied simultaneously with cPG (from bachem, 10 mM stock prepared in PBS and diluted to final concentrations between 1-100 nM) for Study 1. A delay in administration of cPG at 6 hours after glutamate treatment was performed for Study 2.
10 μl of toxin (L-glutamate-100 mM in Millipore water) was applied simultaneously with cyclic(tri(prolylglycyl)) (which was obtained from NeuroBiomed, San Jose, California), 10 mM stock prepared in PBS and diluted to final concentrations between 1-100 nM) for Study 1. A delay in administration of cyclic(tri(prolylglycyl)) at 6 hours after glutamate treatment was performed for Study 2.
10 μl of toxin (L-glutamate-100 mM in Millipore water) was applied simultaneously with cyclic Glycyl-2-Methyl Proline (obtained NeuroBiomed, San Jose California), 10 mM stock prepared in PBS and diluted to final concentrations between 1-100 nM) for Study 1. A delay in administration of cPG at 6 hours after glutamate treatment was performed for Study 2.

[3] = tested on: 6-OHDA induced nigral-striatal lesion; test: 6-OHDA induced nigral-striatal lesion, apomorphine-induced contralateral rotations; assay type: in vivo, Wistar rats; details: 1 mg (mg/kg) i.p. 2 hours post lesion; 7 days post-lesion, apomorphine 0.1 mg/kg; n=5; vehicle 290±18 or 292±21
Procedure: Twenty male Wistar rats (280-310 g) were used. After exposing the skull, 6-OHDA (8 μg in a base of 2 μl 0.9% saline containing 1% ascorbic acid) was administered into the right medial forebrain bundle (MFB) using co-ordinates AP +4.7 mm, R 1.6 mmv −8 mm under 3% halothane anaesthesia. 6-OHDA was injected through a 25G needle connected via a polyethylene catheter to a 100 μl Hamilton syringe. The 6-OHDA was infused by a microdialysis infusion pump at a rate of 0.5 μl/min. The needle was left in the brain for a further 3 minutes before being slowly withdrawn. The skin was sutured with 2.0 silk and the rats were allowed to recover from anaesthesia. The rats were housed in a holding room with free access to food and water at all times except during behavioural testing.
Cyclic PG was dissolved in saline. Four different doses of cPG (0, 0.1, 0.5, 1 mg/kg, Bachem) were administered intraperitoneally 2 hours post lesion.
At 7 days post-lesion, rats were injected with 0.1 mg/kg apomorphine and the number of contralateral rotations/hour was recorded and calculated using a computerised Rotameter (St Diego Instruments). Experimenter was blinded from the treatment groups.
Cyclic(tri(prolylglycyl)) was dissolved in saline solution. Four different doses of Cyclic(tri(prolylglycyl)) (0, 0.1, 0.5, 1 mg/kg, NeuroBiomed) were administered intraperitoneally 2 hours post lesion.
Cyclic Glycyl-2-Methyl Proline (cGMeP) was dissolved in saline solution. Four different doses of cGMeP (0, 0.1, 0.5, 1 mg/kg, NeuroBiomed) were administered intraperitoneally 2 hours post lesion.

COc1ccc(C(CN(C)C)C2(O)CCCCC2)cc1 (stereo not drawn) [Venlafaxine, reference compound]
patients with one or more AEs ([1]; 6-week treatment period, venlafaxine group): 75%
change from baseline in MADRS total score, Mean ± SD ([1]; LOCF, ANCOVA): −21.9 ± 1.0
MADRS total score, Difference to Placebo ([1]; MMRM): −8.1 ± 1.3
change from baseline in MADRS total score, Mean ± SD ([1]; MMRM): −23.5 ± 0.9
MADRS total score, Difference to Placebo ([1]; MMRM, listed as venlafaxine): 5.6±1.3
MADRS total score, Difference to Placebo ([1]; OC, ANCOVA): −5.6 ± 1.3
change from baseline in MADRS total score, Mean ± SD ([1]; OC, ANCOVA): −22.2 ± 0.9
patients withdrawn due to AEs ([1]; venlafaxine group): 2 (25%) patients (%)
AEs reported by a majority of patients ([1]; venlafaxine group, 6 week): nausea, severe headache loss of strength, blurred vision, chest pain, fast or irregular heartbeat and suicidal thoughts

CC12CCCN1C(=O)CNC2=O [cGMeP, (8aS)-Methyl-hexahydropyrrolo[1,2-a]pyrazine-1,4-dione]
improvement, recovery from glutamate induced neurotoxicity ([2]; 1-100 nM given 6 hours after the glutamate treatment, compared to vehicle): approximately 58%
reduction of glutamate induced neuronal death ([2]; administered simultaneously with glutamate, 1-100 nM, glutamate alone 85% loss of neurons): 63%
number of contralateral rotations/hour [3]: 134±69 rotations/hour

From patent US12070458B2, “Therapeutic agent composition and method of use, for treatment of mild congnitive impairment, depression, and psychological disorders” (priority 2018, dated 2024)
